Columns and labels:
hAAT mRNA = assay: Liver hAAT mRNA levels in PiZ mice (RT-qPCR); format: in vivo, human (expressed in PiZ mice); settings: for hAAT mRNA in liver reduced: 6 month old female PiZ mice, single IV 8 mg/kg + 8 mg/kg MLP delivery polymer; for Average relative mRNA level (hAAT) / hAAT mRNA level: PiZ mice liver; for Average relative mRNA level (hAAT): one injection 8 mg/kg + 8 mg/kg MLP delivery polymer; for hAAT mRNA level: single IV 6 mg/kg with 6 mg/kg MLP delivery polymer, relative to mouse β-actin mRNA
Experimental: Compositions comprising double-stranded AAT expression-inhibiting oligomeric compounds were administered to PiZ mice. PiZ mice harbor the human PiZ AAT mutant allele and model human AATD (Carlson et al. Journal of Clinical Investigation 1989). […] Liver hAAT mRNA production was measured at days 3 and 10. Reduced mRNA levels correlated with decreased serum hAAT protein levels, except that mRNA reduction preceded protein reduction by a few days. The level of liver hAAT mRNA production was measured at day 3 and day 10 following a single dose of AAT RNAi agent with MLP delivery polymer in PiZ mice. A sustained decrease in liver hAAT mRNA levels was observed that correlated with the decrease observed in serum hAAT protein levels.
(§1) Human AAT protein levels in serum were monitored for 29 days. At the indicated times, blood samples were collected and assayed for hAAT by ELISA. Day 1 samples were collected prior to trigger administration. For mRNA analysis, 3-4 mice were euthanized at each of days 3, 8, 15, 22, and 29. For euthanized mice, cardiac stick were performed for serum isolation for AAT ELISA (200 μl serum). Half of the left lateral liver lobe was collected and snap-freeze in liquid nitrogen for RNA isolation. The remainder of the left lobes were embedded into paraffin blocks for PAS-D staining with hematoxylin as counter-stain. Serum hAAT levels in mice given AAT Duplex Pair SEQ ID NO: 5/6 were 95% reduced on day 8 and remained reduced to day 29, at which time they were 79% reduced. Mice given AAT Duplex Pair SEQ ID NO: 5/6 were euthanized at either day 3, 8, 15, 22 or 29. Mice given saline or Luciferase siRNA control (SEQ ID 7/8) were euthanized on day 29. Levels of hAAT mRNA in the livers were measured by RT-qPCR. The hAAT mRNA in mice given AAT Duplex Pair SEQ ID NO: 5/6 was reduced by 97% on day 3 and remained reduced on day 29, at which time levels were 56% reduced. The size of the globules and the area of the liver covered by globules was digitally quantitated from liver specimens stained with PAS-D. Duplex Pair SEQ ID NO: 5/6 treated mice had 70% smaller globules at day 15 and 62% smaller globules at day 29. The area of the liver covered with globules was 83% reduced on day 15 and 72% reduced on day 29 (FIG. 5).

Z-AAT globules = assay: PAS-D staining and digital quantitation of Z-AAT globules in PiZ mouse liver; format: in vivo, human (expressed in PiZ mice); settings: for area of the liver covered with globules reduced / smaller globules: 6 month old female PiZ mice, single IV 8 mg/kg + 8 mg/kg MLP delivery polymer
Experimental: (§2) AAT RNAi agent was administered to PiZ mice. Each mouse received a biweekly administration of an intravenous (IV) dose of 8 mg/kg AAT RNAi agent with 8 mg/kg of MLP delivery polymer for 8 weeks. Mice were bled weekly to monitor hAAT levels in serum and were sacrificed on day 57 after administration of AAT RNAi agent with MLP delivery polymer. Liver samples were harvested and fixed in 10% neutral-buffered formalin and embedded in paraffin. Inflammatory infiltration was assessed by H&E staining. […] PiZ mice injected biweekly with saline had significant globule accumulation as well as inflammatory infiltration around damaged or dead hepatocytes. Aggregation of Z-hAAT was visualized by performing diastase-resistant periodic acid Schiff (PAS-D) staining on liver sections. Diastase digestion of glycogen prior to performing a PAS stain allows positive staining of Z-AAT protein accumulation, or “globules”. […] The number of globules, the size of the globules and the area of the liver covered by globules was digitally quantitated from liver specimens stained with PAS-D. Mice treated with AAT RNAi agent had 85% fewer globules, 85% smaller globules, and 96% less area of the liver covered with globules than saline-injected controls (FIG. 3).
as §1

Z-hAAT [1] = assay: Semi-quantitative Western blot of soluble (monomer) and insoluble (polymer) Z-hAAT in PiZ mouse liver; format: in vivo, human (expressed in PiZ mice)
Experimental: A modified western blot protocol was used to separate the soluble and insoluble Z-hAAT fractions under non-denaturing conditions as previously described (Mueller et al. Molecular Therapy 2012).
PiZ mice treated biweekly with 8 mg/kg AAT RNAi agent for 32 weeks were compared with mice at start of study (baseline) and control mice injected for 32 weeks with saline vehicle. Monomeric and polymeric Z-hAAT protein in the livers of these mice were compared by semi-quantitative Western blotting (FIG. 7). […] Monomeric Z-AAT was reduced by 90% and polymeric Z-AAT was reduced by 48% in the AAT RNAi agent treated mice (p<0.0001).
One animal from each of Groups 2, 3, and 4 died prior to completion of the study. After sacrifice, monomeric and polymeric Z-hAAT protein in the livers of these mice were compared by semi-quantitative Western blotting over a course of 3 separate runs. Western blot Run 1 included six mice from Group 1, four mice from Group 2, and five mice from Group 4. Western blot Run 2 includes three mice from Group 1, six mice from Group 3 and 5 mice from Group 5. Western blot Run 3 includes three mice from Group 1, 2 mice from Group 4, 2 mice from Group 5, 7 mice from Group 6.

[2] = test system: liver morphology of PiZ mice; assay: Liver histology (H&E) of PiZ mice; format: in vivo
Experimental: as §2
Baseline mice had significant globule accumulation with globules that were 5-10 microns in diameter, compressed nuclei, apoptosis and inflammatory cell infiltration. Saline treated mice had significant globule accumulation with globules that were 25-35 microns in diameter, compressed nuclei, and inflammatory cell infiltration.

Z-hAAT [3] = assay: Semi-quantitative Western blot of soluble (monomer) and insoluble (polymer) Z-hAAT in PiZ mouse liver; format: in vivo, human (expressed in PiZ mice); settings: PiZ mice liver; four biweekly IV doses 8 mg/kg with 8 mg/kg MLP delivery polymer for 8 weeks
[4] = PiZ mice, four biweekly IV doses 8 mg/kg with 8 mg/kg MLP delivery polymer over 8 weeks, PAS-D
[5] = Western blot Run 1, Group 4 (n = 5): male PiZ mice, 8 mg/kg + 4 mg/kg MLP, 20 × q2w, euthanized Week 39
[6] = male PiZ mice liver, biweekly 8 mg/kg (with MLP) for 32 weeks, p<0.0001
[7] = PiZ mice, AAT RNAi agent + MLP treated, n = 16
[8] = male PiZ mice, biweekly AAT RNAi agent with MLP (Example 9)

Duplex Pair SEQ ID NO: 5/6: double-stranded AAT RNAi agent: modified antisense strand SEQ ID NO: 5 annealed to Chol-TEG sense strand SEQ ID NO: 6 (antisense TGGAACUUGGUGAUGAUAUTT; sense UAUAUAUCAUCACCAAGUUCCAT; Chol-TEG on sense strand; chemical modifications; antisense strand of dsRNA; modified_base 7 /mod_base = “2′-3′ seco corresponding nucleotide”; modified_base 2,4,6,8,10,12,14,16,18 /mod_base = “2′-deoxy-2′-fluoro corresponding nucleoside”; modified_base 3,5,9,11,13,15,17,19 /mod_base = “2′-O-methyl corresponding nucleoside”; modified_base 21 /mod_base = “5′-phosphorothioate corresponding nucleotide”; sense strand of dsRNA; modified_base 2 /mod_base = “2′-hydroxy corresponding nucleoside”; modified_base 4,6,8,10,12,14,16,18,20,22 /mod_base = “2′-deoxy-2′-fluoro corresponding nucleoside”; …)
hAAT mRNA in liver reduced (hAAT mRNA; day 3): 97%
hAAT mRNA in liver reduced (hAAT mRNA; day 29): 56%
Average relative mRNA level (hAAT) (hAAT mRNA; Day 3): 0.030
Average relative mRNA level (hAAT) (hAAT mRNA; Day 8): 0.032
Average relative mRNA level (hAAT) (hAAT mRNA; Day 15): 0.158
Average relative mRNA level (hAAT) (hAAT mRNA; Day 22): 0.221
Average relative mRNA level (hAAT) (hAAT mRNA; Day 29): 0.439
hAAT mRNA level (hAAT mRNA; day 3): 0.025 ± 0.02
hAAT mRNA level (hAAT mRNA; day 10): 0.055 ± 0.02
area of the liver covered with globules reduced (Z-AAT globules; day 15): 83%
smaller globules (Z-AAT globules; day 15): 70%
area of the liver covered with globules reduced (Z-AAT globules; day 29): 72%
smaller globules (Z-AAT globules; day 29): 62%
fewer globules (number of globules) than saline-injected controls (Z-AAT globules; [4]): 85%
less area of the liver covered with globules than saline-injected controls (Z-AAT globules; [4]): 96%
smaller globules (size of the globules) than saline-injected controls (Z-AAT globules; [4]): 85%
Z-hAAT monomeric protein, Average (Standard deviation) (Z-hAAT [1]; [5]): 71.4 (15.6)
Z-hAAT monomeric protein, Average Normalized to Baseline (Group 1) (Z-hAAT [1]; [5]): 0.126
Z-hAAT monomeric protein, Average Normalized to Saline (Group 2) (Z-hAAT [1]; [5]): 0.152
Z-hAAT polymeric protein, Average (Standard deviation) (Z-hAAT [1]; [5]): 1809.1 (932.5)
Z-hAAT polymeric protein, Average Normalized to Baseline (Group 1) (Z-hAAT [1]; [5]): 0.419
Z-hAAT polymeric protein, Average Normalized to Saline (Group 2) (Z-hAAT [1]; [5]): 0.238
Z-AAT polymer burden and diseased liver morphology (Z-hAAT [1]; male PiZ mice 11-17 weeks old, biweekly 4, 8 or 12 mg/kg with MLP delivery polymer (2:1) for 16, 24 or 32-33 weeks): a reduction in the Z-AAT polymer burden and a reduction in the diseased liver morphology
Monomeric Z-AAT reduced (Z-hAAT [1]; [6]): 90%
polymeric Z-AAT reduced (Z-hAAT [1]; [6]): 48%
Score: Inflammatory foci, Moderate (number of animals) [2, 7]: 11
Score: Inflammatory foci, None (number of animals) [2, 7]: 5
Score: Inflammatory foci, Severe (number of animals) [2, 7]: 0
Score: Compressed nuclei (animals/total) ([2]; PiZ mice, AAT RNAi agent + MLP treated, n = 16, baseline 7/12, saline 13/13): 3/16
Liver morphology and inflammatory infiltration (H&E staining) ([2]; PiZ mice, biweekly IV 8 mg/kg with 8 mg/kg MLP delivery polymer for 8 weeks, day 57): normal morphology, no detectably inflammatory infiltrate and very rare, small Z-hAAT globules
compressed nuclei [2, 8]: fewer compressed nuclei than either baseline or saline-treated mice
inflammatory infiltration [2, 8]: no inflammatory infiltration
globule diameter ([2]; male PiZ mice, biweekly AAT RNAi agent with MLP (Example 9), baseline 5-10, saline 25-35 microns): 7-10 microns
globule accumulation ([2]; male PiZ mice, biweekly AAT RNAi agent with MLP (Example 9), baseline and saline: significant): minimal to moderate
reduction in insoluble Z-hAAT compared to saline (Z-hAAT [3]): 79%
reduction in soluble Z-hAAT compared to saline (Z-hAAT [3]): > 99%

From patent publication US20190071670A1, “Methods Of Treatment For Alpha-1 Antitrypsin Deficiency” (Arrowhead Pharmaceuticals, Inc., priority 2016, published 2019)
